We go through 24 compounds from patent US10941132B2, “Pyrazole derivatives” (HUA MEDICINE (SHANGHAI) Ltd., priority 2016, dated 2021).

The structures appear in SMILES notation.

The target in this assay is T1, recombinant rat mGluR5 (Rattus norvegicus, UniProt P31424).
T1 construct: expressed in transfected cells
T1 sequence (P31424 21-1203): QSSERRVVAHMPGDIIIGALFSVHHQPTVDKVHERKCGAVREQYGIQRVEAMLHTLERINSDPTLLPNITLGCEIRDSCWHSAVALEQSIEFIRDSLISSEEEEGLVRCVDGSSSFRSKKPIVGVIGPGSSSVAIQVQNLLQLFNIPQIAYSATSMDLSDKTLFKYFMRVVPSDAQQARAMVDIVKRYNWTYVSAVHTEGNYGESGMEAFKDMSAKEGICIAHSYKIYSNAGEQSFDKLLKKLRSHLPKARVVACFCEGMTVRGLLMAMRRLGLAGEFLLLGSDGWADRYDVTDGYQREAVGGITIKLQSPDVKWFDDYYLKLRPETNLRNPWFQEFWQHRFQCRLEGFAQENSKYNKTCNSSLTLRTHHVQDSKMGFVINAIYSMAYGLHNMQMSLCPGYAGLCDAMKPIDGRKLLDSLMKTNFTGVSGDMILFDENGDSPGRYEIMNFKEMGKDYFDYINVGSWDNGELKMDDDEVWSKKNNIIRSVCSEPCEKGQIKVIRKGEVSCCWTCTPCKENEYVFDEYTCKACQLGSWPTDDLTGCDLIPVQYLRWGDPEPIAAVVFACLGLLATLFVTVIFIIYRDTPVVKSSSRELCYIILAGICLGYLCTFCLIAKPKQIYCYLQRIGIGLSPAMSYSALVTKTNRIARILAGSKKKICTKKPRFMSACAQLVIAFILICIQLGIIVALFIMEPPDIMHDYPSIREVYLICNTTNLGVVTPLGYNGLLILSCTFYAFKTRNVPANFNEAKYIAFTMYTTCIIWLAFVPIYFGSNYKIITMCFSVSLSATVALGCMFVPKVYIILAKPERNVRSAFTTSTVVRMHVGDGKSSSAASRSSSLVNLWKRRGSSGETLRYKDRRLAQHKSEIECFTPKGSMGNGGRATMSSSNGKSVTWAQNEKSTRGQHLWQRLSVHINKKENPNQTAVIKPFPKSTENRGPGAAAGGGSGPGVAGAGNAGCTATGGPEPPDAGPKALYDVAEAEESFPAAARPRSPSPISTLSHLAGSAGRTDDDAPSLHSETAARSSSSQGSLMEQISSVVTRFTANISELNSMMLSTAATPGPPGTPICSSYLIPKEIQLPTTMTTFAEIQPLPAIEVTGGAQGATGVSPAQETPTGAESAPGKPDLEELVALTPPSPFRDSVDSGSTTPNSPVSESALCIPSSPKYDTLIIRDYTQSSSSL
The assay can be described thus: Functional calcium flux assay (FLIPR), antagonist evaluation against glutamate-evoked [Ca2+]i increase. It is filed as cell-based. To be noted: Table 2; HEK293 cells stably expressing recombinant rat mGluR5; 15 min incubation of test compound, then submaximal glutamate; read-out: IC50 (FLIPR assay). An outline of the steps: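 HEK293 cells stably expressing rat mGluR5 were loaded with Fluo-8, preincubated 15 min with compound, then stimulated with submaximal glutamate; [Ca2+]i read by FLIPR. Inhibition relative to glutamate alone was fitted to a 4-parameter logistic to derive IC50.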
As to `Fc1ccc(-n2ccc(C#Cc3ccccc3)n2)cc1` [Compound 113, 1-(4-fluorophenyl)-3-(phenylethynyl)-1H-pyrazole], the concentration for half-maximal inhibition (IC50) was 1 to 5 µM.

In the case of `Fc1ccc(-n2ccc(C#Cc3cccnc3)n2)cc1` [Compound 114, 3-((1-(4-fluorophenyl)-1H-pyrazol-3-yl)ethynyl)pyridine], the IC50 fell in the range of 1 to 5 µM.

For the compound `Fc1ccc(-n2ccc(C#Cc3cccc(Cl)c3)n2)cc1` [Compound 115, 3-((3-chlorophenyl)ethynyl)-1-(4-fluorophenyl)-1H-pyrazole], the IC50 was 0.5 to 1 µM.

Consider `Fc1ccc(-n2ccc(C#Cc3ccnc(Cl)c3)n2)cc1` [Compound 116, 2-chloro-4-((1-(4-fluorophenyl)-1H-pyrazol-3-yl)ethynyl)pyridine], for which the IC50 is at most 0.5 µM.

In the case of `Fc1ccc(-n2ccc(C#Cc3ncccn3)n2)cc1` [Compound 117, 2-((1-(4-fluorophenyl)-1H-pyrazol-3-yl)ethynyl)pyrimidine], the IC50 lay in the range of 0.5 to 1 µM.

Turning to `Fc1ccc(-n2ccc(C#Cc3ccncc3)n2)cc1` [Compound 118, 4-((1-(4-fluorophenyl)-1H-pyrazol-3-yl)ethynyl)pyridine], the IC50 is at most 0.5 µM.

In the case of `Fc1ccc(-n2ccc(C#Cc3cnccn3)n2)cc1` [Compound 119, 2-((1-(4-fluorophenyl)-H-pyrazol-3-yl)ethynyl)pyrazine], the half-inhibitory concentration (IC50) fell in the range of 1 to 5 µM.

Regarding `FC(F)(F)Oc1ccc(-n2ccc(C#Cc3ccccc3)n2)cc1` [Compound 120], the IC50 lay in the range of 1 to 5 µM.

With `FC(F)(F)Oc1ccc(-n2ccc(C#Cc3cccnc3)n2)cc1` [Compound 121, 3-((1-(4-(trifluoromethoxy)phenyl)-1H-pyrazol-3-yl)ethynyl) pyridine], the concentration for half-maximal inhibition (IC50) lay within 1 to 5 µM.

With `FC(F)(F)Oc1ccc(-n2ccc(C#Cc3cccc(Cl)c3)n2)cc1` [Compound 122, 3-((3-chlorophenyl)ethynyl)-1-(4-(trifluoromethoxy)phenyl)-1H-pyrazole], the IC50 lay in the range of 1 to 5 µM.

For `FC(F)(F)Oc1ccc(-n2ccc(C#Cc3ncccn3)n2)cc1` [Compound 123, 2-((1-(4-(trifluoromethoxy)phenyl)-1H-pyrazol-3-yl)ethynyl) pyrimidine], the IC50 was 1 to 5 µM.

Regarding `FC(F)(F)Oc1ccc(-n2ccc(C#Cc3ccncc3)n2)cc1` [Compound 124, 4-((1-(4-(trifluoromethoxy)phenyl)-1H-pyrazol-3-yl)ethynyl) pyridine], the IC50 lay in the range of 1 to 5 µM.

Regarding `FC(F)(F)Oc1ccc(-n2ccc(C#Cc3cnccn3)n2)cc1` [Compound 125, 2-((1-(4-(trifluoromethoxy)phenyl)-1H-pyrazol-3-yl)ethynyl) pyrazine], the half-inhibitory concentration (IC50) fell in the range of 1 to 5 µM.

In the case of `Cc1cc(C#Cc2ccccn2)nn1-c1ccc(F)cc1` [Compound 126], the IC50 was at most 0.5 µM.

Consider `Cc1cc(C#Cc2cccnc2)nn1-c1ccc(F)cc1` [Compound 127, 3-((1-(4-fluorophenyl)-5-methyl-1H-pyrazol-3-yl)ethynyl)pyridine], for which the concentration for half-maximal inhibition (IC50) fell in the range of 1 to 5 µM.

As for `Cc1cc(C#Cc2ncccn2)nn1-c1ccc(F)cc1` [Compound 128, 2-((1-(4-fluorophenyl)-5-methyl-1H-pyrazol-3-yl)ethynyl)], the IC50 is 1 to 5 µM.

For the compound `Cc1cc(C#Cc2cnccn2)nn1-c1ccc(F)cc1` [Compound 129, 2-((1-(4-fluorophenyl)-5-methyl-1H-pyrazol-3-yl)ethynyl)pyrazine], the IC50 lay in the range of 1 to 5 µM.

With `Cc1cc(C#Cc2ccncc2)nn1-c1ccc(F)cc1` [Compound 130, 4-((1-(4-fluorophenyl)-5-methyl-1H-pyrazol-3-yl)ethynyl) pyridine], the IC50 was at most 0.5 µM.

With `Cc1cc(C#Cc2ccnc(Cl)c2)nn1-c1ccc(F)cc1` [Compound 131, 2-chloro-4-((1-(4-fluorophenyl)-5-methyl-1H-pyrazol-3-yl)ethynyl) pyridine], the IC50 is at most 0.5 µM.

Consider `Cc1cc(C#Cc2cccnc2)nn1-c1ccc(OC(F)(F)F)cc1` [Compound 132, 3-((5-methyl-1-(4-(trifluoromethoxy)phenyl)-1H-pyrazol-3-yl)ethynyl)pyridine], for which the IC50 was in the range of 1 to 5 µM.

Take `Cc1cc(C#Cc2ncccn2)nn1-c1ccc(OC(F)(F)F)cc1` [Compound 133, 2-((5-methyl-1-(4-(trifluoromethoxy)phenyl)-1H-pyrazol-3-yl)ethynyl)pyrimidine]: the IC50 lay within 1 to 5 µM.

As to `Cc1cc(C#Cc2cnccn2)nn1-c1ccc(OC(F)(F)F)cc1` [Compound 134, 2-((5-methyl-1-(4-(trifluoromethoxy)phenyl)-H-pyrazol-3-yl)ethynyl)pyrazine], the IC50 was 1 to 5 µM.

Turning to `Cc1cc(C#Cc2ccnc(Cl)c2)nn1-c1ccc(OC(F)(F)F)cc1` [Compound 135, 2-chloro-4-((5-methyl-1-(4-(trifluoromethoxy)phenyl)-1H-pyrazol-3-yl)ethynyl)pyridine], the IC50 was in the range of 1 to 5 µM.

`Cc1cc(C#Cc2ccccn2)nn1-c1ccc(OC(F)(F)F)cc1` [Compound 136, 2-((5-methyl-1-(4-(trifluoromethoxy)phenyl)-1H-pyrazol-3-yl)ethynyl)pyridine]: the IC50 is at most 0.5 µM.
